Data on four compounds can be found in patent publication US8518372B2, “Coronin 1 modulators for the treatment of autoimmune and Lymphoproliferative disorders and mycobacterial infections” (priority 2006, dated 2013).

The subject of data set [1] is M. bovis BCG in bone marrow derived macrophages. It counts as cell-based, mice. The following applies: for lysosomal delivery of mycobacteria: infection 1 h, chase 3 h.
Another data set has as its system Mycobacterium bovis BCG. It counts as cell-based.
Another data set deals with mycobacteria. The experiment in a line: Bacterial proliferation in presence or absence of calcineurin inhibitors. It counts as cell-based. The following applies: FIG. 10h.
Data set [2] concerns macrophages. In words: Protein synthesis in macrophages. It counts as cell-based, mice.
The subject of data set [3] is macrophages. In words: Macrophage viability.
In data set [4] the test system is bone marrow derived macrophages. The experiment in a line: Calcium fluorimetry (Fluo3) in macrophages. It counts as cell-based, mice. The following applies: Fluo-3, FIG. 10a.

Like-named read-outs stand apart in the source and are kept apart here.

In the case of `CC(=O)OCOC(=O)CN(CC(=O)OCOC(C)=O)c1ccccc1OCCOc1ccccc1N(CC(=O)OCOC(C)=O)CC(=O)OCOC(C)=O` [BAPTA-AM], the “lysosomal delivery of mycobacteria” value in data set [1] (BAPTA-AM 1 μM, FIG. 10c,d) is on record as “virtually all mycobacteria were transported to lysosomes”. In the data set with Mycobacterium bovis BCG (BAPTA-AM present, FIG. 10e), the “survival of mycobacteria within macrophages” value is given as “killed”.

As to `C=CC[C@@H]1/C=C(\C)C[C@H](C)C[C@H](OC)[C@H]2O[C@@](O)(C(=O)C(=O)N3CCCC[C@H]3C(=O)O[C@H](/C(C)=C/[C@@H]3CC[C@@H](O)[C@H](OC)C3)[C@H](C)[C@@H](O)CC1=O)[C@H](C)C[C@@H]2OC` [FK506, tacrolimus], in data set [1] (FK506 0.5 μM, FIG. 10g), the “lysosomal delivery of mycobacteria” value is “complete relocation of mycobacteria to lysosomes”. Besides, in the data set with Mycobacterium bovis BCG (wild type bone marrow derived macrophages, calcineurin inhibitor present, FIG. 10h), the “survival of mycobacteria within macrophages” value is reported as “unable to survive within macrophages”. Further, the bacterial proliferation result in the data set with mycobacteria was “identical in the presence or absence”.

As for `C[C@@H]1C[C@@H]([C@H](O)CC2CC(=O)NC(=O)C2)C(=O)[C@@H](C)C1` [cycloheximide], the “intracellular routing of mycobacteria” value in data set [1] is “did not result in alteration”. The survival of mycobacteria entry in the data set with Mycobacterium bovis BCG is reported as “did not result in alteration”. Besides, the protein synthesis result in the data set on macrophages [2] is given as “efficiently blocked protein synthesis”. Besides, the macrophage viability entry with macrophages [3] is recorded as “without compromising macrophage viability”.

On to `C[C@H](CCC(=O)O)C[C@H](C)C[C@H](C)C(=O)/C=C(\O)[C@H](C)C[C@H](C)C/C=C/[C@@H](C)[C@@H](O)[C@@H](C)[C@@H](O)C[C@@H]1CC[C@@](C)([C@H]2CC[C@@](C)([C@@H](C)O)O2)O1` [ionomycin], for which the “cytosolic Ca2+ flux upon stimulation” value is reported as “no Ca^2+ flux was observed” in data set [4] (coronin 1 deficient macrophages) and “accompanied with a flux of cytosolic Ca^2+” in data set [4] (macrophages from wild type mice).
